For one data set, the target named is T1, rat brain VMAT2 (Rattus norvegicus, UniProt Q01827).
T1 construct: the whole rat brain (excluding the cerebellum) or striatal were homogenized; tissue Eurofins Panlabs (assay performed by); host or cells: rat brain (without cerebellum) or striatum, synaptic vesicle suspension
The experiment in a line: VMAT2 binding assay (inhibition of [3H]HTBZ binding). The settings on record: ratio of Ki vs HTBZ.

In data set [1] the test system is locomotor activity of rats. The experiment in a line: Time-dependent effects on locomotor activity in rats. Type of data set: in vivo, rat. The following applies: SD rats, 1.3 μmol/kg. On the procedure:
Rats were placed into the detection box after a single intragastric administration at different time points, and two rats from each group were used in each round of the experiment. The TopScan monitoring system was used to record and analyze the locomotor activity of the rats in different periods (0–1, 1–2, 3–4, 5–6, 6–7, and 7–8 h) after administration, and the RR was calculated as previously described.

Data set [2] in a line: Bidirectional permeability in Caco-2 cell monolayers. The format is in vitro ADME. The settings on record: human, Caco-2, with or without verapamil 30 μM (range covers both); 2.0, 10.0, and 100 µM, presence or absence of verapamil 30 μM, 2 h; read-out: mean Papp (AP→BL). On the procedure:
(§1) Caco-2 cells (ATCC, United States) were seeded on a 96-multiwell insert system (Corning, United States) at a density of 1.0 × 10^5 cells/cm^2. After about 24 days of culture, […] permeability was measured to evaluate the integrity of Caco-2 cell monolayers, and the percent of lucifer yellow in basolateral well which should be less than 1%. Before initiating the transport studies, the cell monolayers were washed with warm HBSS. […] Aliquots from the receiver chamber were collected at 2 h after incubation and stored at −20°C until analysis via LC-MS/MS. All experiments were conducted in triplicate. Permeability coefficient (Papp) and the efflux ratio (ER = P app (BL→AP)/P app (AP→BL)) were calculated.
(Caco-2 cells form a polarised layer with tight junctions and transporters.)

A further data set deals with Caco-2 cell monolayers. Described as above. Type of data set: in vitro ADME. The procedure: as §1

The record followed here is PMC8689140 (Frontiers in Pharmacology, 2021).

The structures appear in SMILES notation.

T1 sequence (Q01827 whole entry): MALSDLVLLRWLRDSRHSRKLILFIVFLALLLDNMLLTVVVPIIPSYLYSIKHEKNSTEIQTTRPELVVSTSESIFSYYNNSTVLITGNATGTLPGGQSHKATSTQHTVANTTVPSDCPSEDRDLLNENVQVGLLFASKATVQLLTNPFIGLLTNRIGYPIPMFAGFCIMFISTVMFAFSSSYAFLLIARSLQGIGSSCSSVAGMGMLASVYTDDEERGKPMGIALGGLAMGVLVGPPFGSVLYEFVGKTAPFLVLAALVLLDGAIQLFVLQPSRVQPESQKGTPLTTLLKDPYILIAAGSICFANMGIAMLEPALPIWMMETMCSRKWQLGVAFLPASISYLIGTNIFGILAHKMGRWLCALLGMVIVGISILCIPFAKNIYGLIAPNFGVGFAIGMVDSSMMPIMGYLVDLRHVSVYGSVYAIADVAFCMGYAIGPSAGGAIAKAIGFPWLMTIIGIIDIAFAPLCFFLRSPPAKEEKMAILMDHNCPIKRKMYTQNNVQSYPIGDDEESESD
Procedure for rat brain VMAT2: In brief, the whole rat brain (excluding the cerebellum) or striatal were homogenized in 20 ml of ice-cold sucrose solution (0.32 M). […] The samples were centrifuged at 20,000 g at 4°C for 20 min, then 20 ml of MgSO4 solution (1 mM) was added to the supernatant.
A 96-well plate was used for the assay in duplicate. […] Samples were preincubated for 30 min at room temperature. […] All reactions were terminated using vacuum filtration over a GF/B glass fiber filter pretreated with 0.5% BSA. […] Radioactivity retained on the filters was determined by liquid scintillation counter. […] IC50 values were determined by a nonlinear least-squares regression analysis and Ki was calculated.

Regarding `COc1cc2c(cc1OCC(F)(F)F)CCN1CC(CC(C)C)C(O)CC21` (single isomer, unassigned; (+)) [(+)-13e, (+)-9-(2,2,2-trifluoroethoxy)-α-dihydrotetrabenazine], the “affinity for VMAT2 stronger than that of HTBZ” value at rat brain VMAT2 is on record as around 3 fold. Besides, the “duration of significant inhibition of locomotor activity” value in data set [1] was “at least 8 h”. Besides, in data set [2], the Papp A→B at 2 h is 260 to 350 nm/s. For the same compound, the “permeability across the Caco-2 cell monolayer” value in the data set with Caco-2 cell monolayers was “high permeability”. For the same compound, the “substrate of P-gp or breast cancer resistance protein (BCRP)” value in the data set on Caco-2 cell monolayers (efflux not observed) is listed as “unlikely to be a substrate”.
